Results reported in US20020049173A1, “Alteration of cellular behavior by antisense modulation of mRNA processing” (priority 1999, published 2002).
In the oligonucleotide strings, read from the 5' end, every base follows the letter of its sugar. An asterisk marks phosphorothioate; unmarked linkages are phosphodiester. Other units and linkages are bracketed, terminal groups are in braces. A string of capitals states the bases alone. e = 2'-O-(2-methoxyethyl) (MOE); [5mC] = 5-methylcytosine

Assays:
[1] = tested on: Human IL-5 receptorα; assay: Human IL-5 receptorα protein expression on the cell surface (36 hr), TF-1 cells; format: cell-based; parameters: % INHIB, human IL-5 receptorα protein on the cell surface / % of CONTROL, human IL-5 receptorα protein on the cell surface: concentration or dose not given beside the values; details: 36 hr
Excerpt: (§1) A series of oligonucleotides were designed to target various splice sites or (intron-exon boundaries) in the IL-5 receptor mRNA.
ISIS 16746, 16748, 16755 and 16758 inhibited human IL-5 receptorα protein by over 50% in this assay and are therefore preferred. ISIS 16758 and 16755 were chosen for further study.

[2] = tested on: Human IL-5 receptorα membrane form mRNA; assay: Human IL-5 receptorα membrane form mRNA expression (18 hr); format: cell-based; parameters: % INHIB'N, human IL-5 receptorα membrane form mRNA / % of CONTROL, human IL-5 receptorα membrane form mRNA: concentration or dose not given beside the values; details: 18 hr
Excerpt: mRNA transcripts encoding the membrane form of the human IL-5 receptorα contain exons 1-10 and 12-14. Exon 11 is spliced out. It is, therefore, possible to target sequences in exons 1-10 which are common to both soluble and membrane forms of the receptor, or to selectively target sequences only present in the membrane form (exons 12-14). Oligonucleotides were also designed to target various intron/exon boundaries downstream of exon 11, with the intention of preventing successful splicing out of exon 11 and thus redirecting splice products away from the membrane form and in favor of the soluble form of IL-5 receptorα.
as §1

[3] = tested on: Human IL-5 receptorα soluble form mRNA; assay: Human IL-5 receptorα soluble form transcript, Northern blot; format: cell-based; details: Northern blot analysis
Excerpt: ISIS 16746, 16748 and 16755 inhibited IL-5 receptor mRNA expression by over 50% and are therefore preferred in this assay. […] Thus it is believed that ISIS 16755 redirects splicing in favor of the membrane form, as is consistent with data obtained with other non-RNAse H (e.g., uniform 2′-methoxyethoxy) oligonucleotides targeted to splice sites.

[4] = tested on: A549 cells; assay: Sensitization of A549 cells to taxol-induced cell death, propidium iodide staining; format: cell-based, human; details: 100 nM oligo
Protocol: A549 cells were treated with 100 nM ISIS 22783 or the 5-mismatch ISIS 26080 and taxol at various doses. The percent apoptotic cells was quantitated by propidium iodide staining according to standard methods.

[5] = tested on: bax mRNA; assay: bax mRNA by RNAse protection assay; format: cell-based
Protocol: ISIS 22783 was tested by RNAse protection assay for ability to inhibit bax, another apoptotic gene. It had no effect on bax mRNA levels.

[6] = tested on: murine bcl-x mRNA; assay: bcl-xs mRNA expression in vivo in mouse liver; details: preliminary experiments
Excerpt: (§2) ISIS 22783 is also fully complementary to the murine bcl-x mRNA which makes it useful for animal studies.

[7] = tested on: human bcl-x mRNA; assay: Total bcl-x mRNA and bcl-xs/bcl-xl ratio in A549 cells, RNase protection; format: cell-based
[8] = tested on: A549 cells; assay: Sensitization of A549 cells to UV-induced cell death, propidium iodide staining; format: cell-based, human; details: 100 nM oligo
Protocol: A549 cells were treated with 100 nM ISIS 22783 or the 5-mismatch ISIS 26080 and exposed to ultraviolet (UV) radiation. The percent apoptotic cells was quantitated by propidium iodide staining according to standard methods.

[9] = tested on: murine bcl-x mRNA; assay: bcl-xs mRNA induction in mouse cell lines bEND, AML12 and Hepa; format: cell-based
Excerpt: as §2

[10] = tested on: human bcl-x mRNA; assay: Total bcl-x mRNA and bcl-xs/bcl-xl ratio in A549 cells, RNase protection; format: cell-based; remark: listed apart in the source
Excerpt: In accordance with the present invention, a series of oligonucleotides were designed to target different regions of human bcl-x RNA, using published sequences (Boise, L. H., et al., 1993, Cell 74, 597-608; Genbank Accession No. L20121, locus name “HSBCLXL,” incorporated herein as SEQ ID NO: 39). Antisense oligonucleotides were designed to target areas of exon 1 and exon 2 of human bcl-x, particularly around the exon 1/exon 2 splice site and in sequence regions present in bcl-xl but not in bcl-xs. All backbone linkages are phosphorothioates; All 2′MOE cytosines are 5-methylcytosines.
Oligonucleotides were evaluated for their respective effects on bcl-xs and bcl-xl3 mRNA levels in A549 cells along with total bcl-x mRNA levels, using the RIBOQUANT™ RNase protection kit (Pharmingen, San Diego Calif.). All assays were performed according to manufacturer's protocols.
A “walk” was done in this region with 20mer 2′-MOE phosphorothioate oligonucleotides targeted to sequences whose 5′ ends were 24, 26, 29, 31, 33, 37, 39, 41, 43, 44, 45 and 47 bases upstream of the splice site. These oligonucleotides were screened as before at a dose of 200 nM oligonucleotide for effect on short and long bcl-x transcripts.

[11] = tested on: A549 cells; assay: Sensitization of A549 cells to cisplatinum-induced cell death, propidium iodide staining; format: cell-based, human; details: 100 nM oligo
Protocol: A549 cells were treated with 100 nM ISIS 22783 or the 5-mismatch ISIS 26080 and cisplatinum at various doses. The percent apoptotic cells was quantitated by propidium iodide staining according to standard methods.

[12] = tested on: E-selectin; assay: E-selectin cell surface protein expression by flow cytometry in HUVEC; format: cell-based, human; details: for time of maximal E-selectin protein expression: after addition of TNF-α
Protocol: (§3) HUVEC (Clonetics, San Diego, Calif.) were cultivated in endothelial basal media supplemented with 10% fetal bovine serum. Cells were treated with oligonucleotides as described previously (Chiang, 1991, J. Biol. Chem. 27:18162-18171; Vickers, 2000, Nucleic Acids Res. 28:1340-1347). Briefly, cells were incubated with a mixture of Lipofectin (Gibco BRL, Gaithersburg, Md.) and oligonucleotide for 4 hours. Cells were incubated for 2-24 hours, then treated with 5 ng/ml TNF-α for 2-3 hours to induce expression of E-selectin. Cells were then washed extensively with phosphate buffered saline (PBS), fresh complete media was added and cells were incubated at 37° C. until harvested.
Following oligonucleotide treatment, cells were detached with D-PBS (without calcium and magnesium) supplemented with 4 mM EDTA. Cells were centrifuged at 5,000 rpm for 1 minute and washed in 2% bovine serum albumin (BSA), 0.2% sodium azide in D-PBS at 4° C. E-selectin-phycoerythrin antibody (Ancell) was then added at 1:100 in 0.1 ml of the above buffer, and incubated for 30 min at 4° C. in the dark. Cells were washed again as above and resuspended in 0.3 ml of PBS buffer with 0.5% formaldehyde. Cells were analyzed for E-selectin expression on a FACScan (Becton-Dickinson). Results are expressed as percentage of control expression based upon the mean fluorescence intensity.
The treated cells were stimulated with TNF-α for 2 hours, then analyzed for E-selectin protein expression by flow cytometry. […] Results at the protein level are not as dramatic as at the RNA level due to the fact that the Type III message remains the predominant RNA species present (FIG. 2). Any change in protein stability resulting from the presence of the type I/II message would likely be partially masked by the more abundant Type III RNA.

[13] = tested on: E-selectin mRNA; assay: Non-quantitative RT-PCR of E-selectin Type I, II and III transcripts in HUVEC; format: cell-based, human; details: relative to untreated cells, 200 nM stated for ISIS 106344
Protocol: (§4) Total RNA was harvested from HUVEC at various times following TNF-α induction using a ToTALLY RNA kit (Ambion) according to the manufacturer's protocol). For Northern blots, RNA was separated on a 1.2% agarose gel containing 1.1% formaldehyde, then transferred to nylon membranes. Blots were hybridized with [^32P]-dCTP random prime labeled cDNA probes specific for E-selectin or […] (G3PDH) for 2 hours in Rapid-hyb solution (Amersham). Blots were washed with 2×SSC containing 0.1% SDS at room temperature, followed by 0.1×SSC containing 0.1% SDS at 60° C. Quantitation of RNA expression was performed using a Molecular Dynamics PhosphorImager. Anchored reverse transcriptase polymerase chain reaction (RT/PCR) was performed essentially as described by Chu et al. (supra.).
To determine if processing could be controlled more specifically, oligonucleotides were also designed to the upstream polyadenylation signals. Non-quantitative RT-PCR was used to distinguish among the three forms of the message. In the absence of oligonucleotide, all three types of transcript were detected. […] This difference may be due to variation in the efficiency of PCR amplification on the varying length products, with the shorter Type I and II messages being more efficiently amplified than the Type III product. […] To determine if the effects of ISIS 106344 were unique, antisense oligonucleotides were designed to the Type I and Type II polyadenylation sites.
To evaluate whether treatment with two oligonucleotides would result in the production of a single species of E-selectin message, HUVEC were treated with ISIS 106344, and either ISIS 135568 or ISIS 135570 (150 nM each). […] Cells were also treated with both ISIS 135568 and ISIS 135570.

[14] = tested on: E-selectin mRNA; assay: Stability of E-selectin messages after TNF-α removal (Northern blot, HUVEC); format: cell-based, human; details: 200 nM
Protocol: as §3
as §4, with “Anchored reverse transcriptase polymerase chain reaction (RT/PCR) was performed essentially as described by Chu et al. (supra.).” left out

[15] = tested on: E-selectin mRNA (Type III polyadenylation signal and site); assay: E-selectin transcript forms by Northern blot in TNF-α-induced HUVEC; format: cell-based, human; details: increasing oligonucleotide dose, TNF-α 2 hours
Protocol: as §3, §4
HUVEC were treated with 2′-O-methoxyethyl (MOE)/phosphorothioate antisense oligonucleotides directed to the Type III polyadenylation signal and site (Table 1A) as described above. After about 24 hours, cells were treated with TNF-α to induce E-selectin expression. Cells were harvested after 2 hours and RNA was isolated. E-selectin expression was analyzed by Northern blotting. […] With increasing oligonucleotide dose, the longer Type III message decreased while a shorter message increased (FIG. 2). This shorter message most likely represents a combination of Type I and II messages, because the Type II message is just 158 bases longer than the Type I message, and the difference in sizes cannot be resolved on the gel which was used.

ISIS 16755: GAACACTTACATTTTACAGA, SEQ ID 34; E12/I12; 2′-MOE pattern not visible (antisense eG*eA*eA*e[5mC]*eA*e[5mC]*eT*eT*eA*e[5mC]*eA*eT*eT*eT*eT*eA*e[5mC]*eA*eG*eA)
% INHIB, human IL-5 receptorα protein on the cell surface [1]: over 50%
% INHIB'N, human IL-5 receptorα membrane form mRNA [2]: over 50%
inhibition of the soluble form transcript [3]: without significantly inhibiting the soluble form

ISIS 22783: CTGGATCCAAGGCTCTAGGT, SEQ ID 44; fully 2′-MOE, full-phosphorothioate; bcl-xl Exon 1L 664-683 (e[5mC]*eT*eG*eG*eA*eT*e[5mC]*e[5mC]*eA*eA*eG*eG*e[5mC]*eT*e[5mC]*eT*eA*eG*eG*eT)
% Apoptotic cells (approx) ([4]; taxol 0 μg/ml): ~8%
% Apoptotic cells (approx) ([4]; taxol 5 μg/ml): ~8%
% Apoptotic cells (approx) ([4]; taxol 10 μg/ml): ~15%
% Apoptotic cells (approx) ([4]; taxol 30 μg/ml): ~26%
effect on bax mRNA levels [5]: no effect
bcl-xs mRNA expression in mouse liver [6]: slight induction of bcl-xs mRNA expression
approx. ratio of bcl-xs/bcl-xl ([7]; Oligo Concentration 100 (unit not given)): ~4.5
approx. ratio of bcl-xs/bcl-xl ([7]; Oligo Concentration 400 (unit not given)): ~18
% Apoptotic cells (approx) ([8]; UV 0 mJ/M^2): ~2%
% Apoptotic cells (approx) ([8]; UV 50 mJ/M^2): ~4%
% Apoptotic cells (approx) ([8]; UV 100 mJ/M^2): ~33%
% Apoptotic cells (approx) ([8]; UV 200 mJ/M^2): ~27%
induction of bcl-xs mRNA [9]: induction of bcl-xs mRNA
time after treatment at which bcl-xs induction with concurrent bcl-xL reduction begins ([10]; A549 cells): 2 to 4 h
% CRTL total bcl-x ([10]; A549 cells (Table 13)): without reducing the total bcl-x mRNA level
bcl-xs/bcl-xl (%) ([10]; A549 cells, no oligo 17.56): 293%
approx. ratio of bcl-xs/bcl-xl ([10]; Oligo Concentration 200 (unit not given)): ~8.5
% Apoptotic cells (approx) ([11]; cisplatinum 0 μg/ml): ~3%
% Apoptotic cells (approx) ([11]; cisplatinum 1 μg/ml): ~6%
% Apoptotic cells (approx) ([11]; cisplatinum 10 μg/ml): ~13%
% Apoptotic cells (approx) ([11]; cisplatinum 50 μg/ml): ~27%

ISIS 106344: CATAAGCACATTTATTGTCA, SEQ ID 66; uniformly 2′-MOE phosphorothioate; E-selectin Type III poly(A) signal (all 2'-MOE, all phosphorothioate, methylation of C not given here)
duration of E-selectin protein expression ([12]; TNF-α 2 hours, versus control oligonucleotide): sustained expression of E-selectin protein
time of maximal E-selectin protein expression [12]: four hours after addition of TNF-α
Type I E-selectin message (RT-PCR) [13]: increased
Type II E-selectin message (RT-PCR) [13]: increased
Type III E-selectin message (RT-PCR) [13]: decrease
stability of the shorter (type I/II) messages following TNF-α removal [14]: More than half of the shorter messages remained five hours
time following TNF-α removal at which about one half of the type II message remained ([14]; message printed as type II): ~2.5 h
longer Type III E-selectin message (Northern blot) [15]: decreased
shorter E-selectin message (Type I and II) (Northern blot) [15]: increased

ISIS 106346: CATCAGAACTTATATAGTCA, SEQ ID 68; 106344 mismatch control (all 2'-MOE, all phosphorothioate, methylation of C not given here) [reference compound]
time of maximal E-selectin protein expression [12]: four hours after addition of TNF-α
